Measurements from patent US20100234390A1, “NOVEL COMPOUND AND THEIR USE” (priority 2007, published 2010).

How the values were obtained:
Assay in all cases: Agar dilution MIC
Conditions in all cases: 35° C., 16-20 hours
S. aureus ATCC 29213 = assay type: cell-based, Staphylococcus aureus
Experimental: (§1) Briefly, the compounds of invention were weighed, dissolved in dimethyl sulfoxide, serially two fold diluted in the same solvent and then incorporated into molten Mueller Hinton Agar (MHA) in a petridish just before solidification, with each petridish containing a different concentration of a compound.
(§2) The bacterial inoculum was prepared by picking 3 to 5 well isolated bacterial colonies with the same morphological appearance from an 18-24 hours old culture with an inoculating loop, transferring the growth to a tube containing 3 mL of normal saline and adjusting the turbidity of the saline suspension to 0.5 Mc Farland Turbidity Standard equivalent to a bacterial population of 1.5×10^8 colony forming units (CFU) per mL of suspension. The suspension was diluted 1:10 in saline (i.e. 0.5 mL suspension 4.5 mL saline) to get a bacterial population of 1.5×10^7 CFU/mL as inoculum.
(§3) The inoculated petridishes were incubated at 35° C. in an ambient atmosphere for 16-20 hours.

S. aureus ATCC 43300 = assay type: cell-based, Staphylococcus aureus
Experimental: as §1, §2, §3

S. aureus MRO 00013 = assay type: cell-based, Staphylococcus aureus
Experimental: as §1, §2, §3

S. aureus MRO 0001 = assay type: cell-based, Staphylococcus aureus
Experimental: as §1, §2, §3

S. aureus MRO 00030 = assay type: cell-based, Staphylococcus aureus
Experimental: as §1, §2, §3

S. aureus MRO 0003 = assay type: cell-based, Staphylococcus aureus
Experimental: as §1, §2, §3

S. aureus MRO 00048 = assay type: cell-based, Staphylococcus aureus
Experimental: as §1, §2, §3

S. aureus MRO 00055 = assay type: cell-based, Staphylococcus aureus
Experimental: as §1, §2, §3

S. aureus MRO 00059 = assay type: cell-based, Staphylococcus aureus
Experimental: as §1, §2, §3

S. aureus MRO 002053 = assay type: cell-based, Staphylococcus aureus
Experimental: as §1, §2, §3

[1] = system: S. epidermidis MRO 002046; assay type: cell-based
Experimental: as §1, §2, §3

S. epidermidis MRO 02002 = assay type: cell-based
Experimental: as §1, §2, §3

S. epidermidis MRO 02045 = assay type: cell-based
Experimental: as §1, §2, §3

S. epidermidis MRO 02095 = assay type: cell-based
Experimental: as §1, §2, §3

[2] = system: S. haemolyticus MRO 02064; assay type: cell-based
Experimental: as §1, §2, §3

[3] = system: S. saprophyticus MRO 02003; assay type: cell-based
Experimental: as §1, §2, §3

E. faecalis ATCC 29212 = assay type: cell-based, Enterococcus faecalis
Experimental: as §1, §2, §3

E. faecalis ATCC 51299 = assay type: cell-based, Enterococcus faecalis
Experimental: as §1, §2, §3

E. faecalis MRO 04035 = assay type: cell-based, Enterococcus faecalis
Experimental: as §1, §2, §3

E. faecalis MRO 04050 = assay type: cell-based, Enterococcus faecalis
Experimental: as §1, §2, §3

E. faecalis MRO 04205 = assay type: cell-based, Enterococcus faecalis
Experimental: as §1, §2, §3

E. faecium ATCC 700221 = assay type: cell-based, Enterococcus faecium
Experimental: as §1, §2, §3

E. faecium MRO 04037 = assay type: cell-based, Enterococcus faecium
Experimental: as §1, §2, §3

E. faecium MRO 04038 = assay type: cell-based, Enterococcus faecium
Experimental: as §1, §2, §3

E. faecium MRO 04198 = assay type: cell-based, Enterococcus faecium
Experimental: as §1, §2, §3

[4] = system: M. catarrhalis ATCC 43617; assay type: cell-based, Moraxella catarrhalis
Experimental: as §1, §2, §3

[5] = system: M. catarrhalis ATCC 43627; assay type: cell-based, Moraxella catarrhalis
Experimental: as §1, §2, §3

[6] = system: M. catarrhalis ATCC 43628; assay type: cell-based, Moraxella catarrhalis
Experimental: as §1, §2, §3

Structure (SMILES)	Antimicrobial Screening (MIC) (S. aureus ATCC 29213) [µg/mL]	Antimicrobial Screening (MIC) (S. aureus ATCC 43300) [µg/mL]	Antimicrobial Screening (MIC) (S. aureus MRO 00013) [µg/mL]	Antimicrobial Screening (MIC) (S. aureus MRO 0001) [µg/mL]	Antimicrobial Screening (MIC) (S. aureus MRO 00030) [µg/mL]	Antimicrobial Screening (MIC) (S. aureus MRO 0003) [µg/mL]	Antimicrobial Screening (MIC) (S. aureus MRO 00048) [µg/mL]	Antimicrobial Screening (MIC) (S. aureus MRO 00055) [µg/mL]	Antimicrobial Screening (MIC) (S. aureus MRO 00059) [µg/mL]	Antimicrobial Screening (MIC) (S. aureus MRO 002053) [µg/mL]	Antimicrobial Screening (MIC) [1] [µg/mL]	Antimicrobial Screening (MIC) (S. epidermidis MRO 02002) [µg/mL]	Antimicrobial Screening (MIC) (S. epidermidis MRO 02045) [µg/mL]	Antimicrobial Screening (MIC) (S. epidermidis MRO 02095) [µg/mL]	Antimicrobial Screening (MIC) [2] [µg/mL]	Antimicrobial Screening (MIC) [3] [µg/mL]	Antimicrobial Screening (MIC) (E. faecalis ATCC 29212) [µg/mL]	Antimicrobial Screening (MIC) (E. faecalis ATCC 51299) [µg/mL]	Antimicrobial Screening (MIC) (E. faecalis MRO 04035) [µg/mL]	Antimicrobial Screening (MIC) (E. faecalis MRO 04050) [µg/mL]	further results
COC(=S)NC[C@H]1CN(c2ccc(N3CCN(C(=O)C=Cc4ccc([N+](=O)[O-])o4)CC3)c(F)c2)C(=O)O1 [Example 40, (S)—O-Methyl(3-(3-fluoro-4-(4-(3-(5-nitrofuran-2-yl)acryloyl)piperazin-1-yl)phenyl)-2-oxooxazolidin-5-yl)methylcarbamothioate]	0.25	0.125	0.25	0.25	0.125	0.25	0.25	0.25	0.25	0.06	<0.03	0.125	<0.03	0.06	0.125	0.06	0.25	0.25	0.25	0.25	Antimicrobial Screening (MIC) (E. faecalis MRO 04205): 0.25 µg/mL; Antimicrobial Screening (MIC) (E. faecium ATCC 700221): 0.125 µg/mL; Antimicrobial Screening (MIC) (E. faecium MRO 04037): 0.25 µg/mL; Antimicrobial Screening (MIC) (E. faecium MRO 04038): 0.25 µg/mL; Antimicrobial Screening (MIC) (E. faecium MRO 04198): 0.25 µg/mL; Antimicrobial Screening (MIC) [4]: 0.06 µg/mL; Antimicrobial Screening (MIC) [5]: 0.125 µg/mL; Antimicrobial Screening (MIC) [6]: 0.125 µg/mL
COC(=S)NC[C@H]1CN(c2ccc(N3CCN(C(=O)CNS(C)(=O)=O)CC3)c(F)c2)C(=O)O1 [Example 43]	0.5	0.5	0.5	0.25	0.5	0.5	0.5	0.5	0.5	0.5	0.25	0.5	0.5	0.5	0.5	0.5	0.25	0.25	0.25	0.25	Antimicrobial Screening (MIC) (E. faecalis MRO 04205): 0.25 µg/mL; Antimicrobial Screening (MIC) (E. faecium ATCC 700221): 0.25 µg/mL; Antimicrobial Screening (MIC) (E. faecium MRO 04037): 0.25 µg/mL; Antimicrobial Screening (MIC) (E. faecium MRO 04038): 0.25 µg/mL; Antimicrobial Screening (MIC) (E. faecium MRO 04198): 0.5 µg/mL; Antimicrobial Screening (MIC) [4]: 1 µg/mL; Antimicrobial Screening (MIC) [5]: 2 µg/mL; Antimicrobial Screening (MIC) [6]: 2 µg/mL
COC(=S)NC[C@H]1CN(c2ccc(N3CCN(C(=O)c4ccno4)CC3)c(F)c2)C(=O)O1 [Example 44, (S)—O-M ethyl(3-(3-fluoro-4-(4-(isoxazole-5-carbonyl)piperazin-1-yl)phenyl)-2-oxooxazolidin-5-yl)methylcarbamothioate]	0.5	0.5	0.5	0.5	0.5	0.5	0.25	0.5	0.5	0.5	0.25	0.5	0.5	0.25	0.25	0.5	0.25	0.25	0.25	0.5	Antimicrobial Screening (MIC) (E. faecalis MRO 04205): 0.25 µg/mL; Antimicrobial Screening (MIC) (E. faecium ATCC 700221): 0.25 µg/mL; Antimicrobial Screening (MIC) (E. faecium MRO 04037): 0.25 µg/mL; Antimicrobial Screening (MIC) (E. faecium MRO 04038): 0.25 µg/mL; Antimicrobial Screening (MIC) (E. faecium MRO 04198): 0.25 µg/mL; Antimicrobial Screening (MIC) [4]: 1 µg/mL; Antimicrobial Screening (MIC) [5]: 2 µg/mL; Antimicrobial Screening (MIC) [6]: 1 µg/mL
